Assay results published in ChEMBL document CHEMBL4004849, “Tetrazolylmethyl quinolines: Design, docking studies, synthesis, anticancer and antifungal analyses” (2017).
≈ marks a conversion by molar mass, not a printed value. Calls of active or inactive are those of the source. No cut-off for these calls is given here.

Columns and labels:
Assay type in all cases: functional
[1] = tested on: UACC-62; test: Growth inhibition of human UACC62 cells at 10^-5 M incubated for 48 hrs by sulforhodamine B assay relative to control
[2] = tested on: SNB-19; test: Growth inhibition of human SNB19 cells at 10^-5 M incubated for 48 hrs by sulforhodamine B assay relative to control
[3] = tested on: NCI/ADR-RES; test: Growth inhibition of human NCI-ADR-RES cells at 10^-5 M incubated for 48 hrs by sulforhodamine B assay relative to control
[4] = tested on: SK-MEL-2; test: Growth inhibition of human SK-MEL-2 cells at 10^-5 M incubated for 48 hrs by sulforhodamine B assay relative to control
[5] = tested on: Candida albicans; test: Antifungal activity against Candida albicans at 100 ug/ml by disc diffusion method; details: read-out: IZ
[6] = tested on: NCI-H460; test: Growth inhibition of human NCI-H460 cells at 10^-5 M incubated for 48 hrs by sulforhodamine B assay relative to control
[7] = tested on: BT-549; test: Growth inhibition of human BT549 cells at 10^-5 M incubated for 48 hrs by sulforhodamine B assay relative to control
[8] = tested on: NCI-H522; test: Growth inhibition of human NCI-H522 cells at 10^-5 M incubated for 48 hrs by sulforhodamine B assay relative to control
[9] = tested on: NCI-H23; test: Growth inhibition of human NCI-H23 cells at 10^-5 M incubated for 48 hrs by sulforhodamine B assay relative to control
[10] = tested on: MOLT-4; test: Growth inhibition of human MOLT4 cells at 10^-5 M incubated for 48 hrs by sulforhodamine B assay relative to control
[11] = tested on: HCT-116; test: Growth inhibition of human HCT116 cells at 10^-5 M incubated for 48 hrs by sulforhodamine B assay relative to control
[12] = tested on: HL-60(TB); test: Growth inhibition of human HL-60(TB) cells at 10^-5 M incubated for 48 hrs by sulforhodamine B assay relative to control
[13] = tested on: A549; test: Growth inhibition of human A549/ATCC cells at 10^-5 M incubated for 48 hrs by sulforhodamine B assay relative to control
[14] = tested on: IGROV-1; test: Growth inhibition of human IGROV1 cells at 10^-5 M incubated for 48 hrs by sulforhodamine B assay relative to control
[15] = tested on: MCF7; test: Growth inhibition of human MCF7 cells at 10^-5 M incubated for 48 hrs by sulforhodamine B assay relative to control
[16] = tested on: U-251; test: Growth inhibition of human U251 cells at 10^-5 M incubated for 48 hrs by sulforhodamine B assay relative to control
[17] = tested on: UACC-257; test: Growth inhibition of human UACC257 cells at 10^-5 M incubated for 48 hrs by sulforhodamine B assay relative to control
[18] = tested on: MDA-MB-468; test: Growth inhibition of human MDA-MB-468 cells at 10^-5 M incubated for 48 hrs by sulforhodamine B assay relative to control
[19] = tested on: OVCAR-5; test: Growth inhibition of human OVCAR5 cells at 10^-5 M incubated for 48 hrs by sulforhodamine B assay relative to control
[20] = tested on: MDA-MB-435; test: Growth inhibition of human MDA-MB-435 cells at 10^-5 M incubated for 48 hrs by sulforhodamine B assay relative to control
[21] = tested on: CAKI-1; test: Growth inhibition of human Caki1 cells at 10^-5 M incubated for 48 hrs by sulforhodamine B assay relative to control
[22] = tested on: RXF 393; test: Growth inhibition of human RXF393 cells at 10^-5 M incubated for 48 hrs by sulforhodamine B assay relative to control
[23] = tested on: UO-31; test: Growth inhibition of human UO31 cells at 10^-5 M incubated for 48 hrs by sulforhodamine B assay relative to control
[24] = tested on: Aspergillus fumigatus; test: Antifungal activity against Aspergillus fumigatus after 24 hrs by serial dilution method
[25] = tested on: SF-268; test: Growth inhibition of human SF268 cells at 10^-5 M incubated for 48 hrs by sulforhodamine B assay relative to control
[26] = tested on: Candida albicans; test: Antifungal activity against Candida albicans after 24 hrs by serial dilution method
[27] = tested on: SK-OV-3; test: Growth inhibition of human SKOV3 cells at 10^-5 M incubated for 48 hrs by sulforhodamine B assay relative to control
[28] = tested on: DU-145; test: Growth inhibition of human DU145 cells at 10^-5 M incubated for 48 hrs by sulforhodamine B assay relative to control
[29] = tested on: T47D; test: Growth inhibition of human T47D cells at 10^-5 M incubated for 48 hrs by sulforhodamine B assay relative to control
[30] = tested on: SN12C; test: Growth inhibition of human SN12C cells at 10^-5 M incubated for 48 hrs by sulforhodamine B assay relative to control
[31] = tested on: NCI-H226; test: Growth inhibition of human NCI-H226 cells at 10^-5 M incubated for 48 hrs by sulforhodamine B assay relative to control
[32] = tested on: HCT-15; test: Growth inhibition of human HCT15 cells at 10^-5 M incubated for 48 hrs by sulforhodamine B assay relative to control
[33] = tested on: HT-29; test: Growth inhibition of human HT-29 cells at 10^-5 M incubated for 48 hrs by sulforhodamine B assay relative to control
[34] = tested on: Malme-3M; test: Growth inhibition of human MALME-3M cells at 10^-5 M incubated for 48 hrs by sulforhodamine B assay relative to control
[35] = tested on: OVCAR-3; test: Growth inhibition of human OVCAR3 cells at 10^-5 M incubated for 48 hrs by sulforhodamine B assay relative to control
[36] = tested on: SK-MEL-28; test: Growth inhibition of human SK-MEL-28 cells at 10^-5 M incubated for 48 hrs by sulforhodamine B assay relative to control
[37] = tested on: OVCAR-8; test: Growth inhibition of human OVCAR8 cells at 10^-5 M incubated for 48 hrs by sulforhodamine B assay relative to control
[38] = tested on: SK-MEL-5; test: Growth inhibition of human SK-MEL-5 cells at 10^-5 M incubated for 48 hrs by sulforhodamine B assay relative to control
[39] = tested on: SR; test: Growth inhibition of human SR cells at 10^-5 M incubated for 48 hrs by sulforhodamine B assay relative to control
[40] = tested on: SW-620; test: Growth inhibition of human SW620 cells at 10^-5 M incubated for 48 hrs by sulforhodamine B assay relative to control
[41] = tested on: K562; test: Growth inhibition of human K562 cells at 10^-5 M incubated for 48 hrs by sulforhodamine B assay relative to control
[42] = tested on: COLO 205; test: Growth inhibition of human COLO205 cells at 10^-5 M incubated for 48 hrs by sulforhodamine B assay relative to control
[43] = tested on: M14; test: Growth inhibition of human M14 cells at 10^-5 M incubated for 48 hrs by sulforhodamine B assay relative to control
[44] = tested on: HCC 2998; test: Growth inhibition of human HCC2998 cells at 10^-5 M incubated for 48 hrs by sulforhodamine B assay relative to control

COc1ccc2nc(Cl)c(Cn3nnc(Cc4ccccc4)n3)cc2c1
inhibition of growth at 10 µM ([1]; UACC-62, 48 h, read-out: GI): 64.9% | inhibition of growth at 10 µM ([2]; SNB-19, 48 h, read-out: GI): 42% | inhibition of growth at 10 µM ([3]; read-out: GI): 79.9% | inhibition of growth at 10 µM ([4]; SK-MEL-2, 48 h, read-out: GI): 50.4% | zone of inhibition at 100 µg/mL [5]: 16 mm | inhibition of growth at 10 µM ([6]; NCI-H460, 48 h, read-out: GI): 60% | inhibition of growth at 10 µM ([7]; BT-549, 48 h, read-out: GI): 79.7% | inhibition of growth at 10 µM ([8]; NCI-H522, 48 h, read-out: GI): 62% | inhibition of growth at 10 µM ([9]; NCI-H23, 48 h, read-out: GI): 67.5% | inhibition of growth at 10 µM ([10]; MOLT-4, 48 h, read-out: GI): 89.7% | inhibition of growth at 10 µM ([11]; HCT-116, 48 h, read-out: GI): 70.8% | inhibition of growth at 10 µM ([12]; HL-60, 48 h, read-out: GI): 43.4% | inhibition of growth at 10 µM ([13]; A549, 48 h, read-out: GI): 68.5% | inhibition of growth at 10 µM ([14]; IGROV-1, 48 h, read-out: GI): 56.8% | inhibition of growth at 10 µM ([15]; MCF7, 48 h, read-out: GI): 72.1% | inhibition of growth at 10 µM ([16]; U-251, 48 h, read-out: GI): 46.8% | inhibition of growth at 10 µM ([17]; UACC-257, 48 h, read-out: GI): 73.5% | inhibition of growth at 10 µM ([18]; MDA-MB-468, 48 h, read-out: GI): 70.1% | inhibition of growth at 10 µM ([19]; OVCAR-5, 48 h, read-out: GI): 17.2% | inhibition of growth at 10 µM ([20]; MDA-MB-435, 48 h, read-out: GI): 70.7% | inhibition of growth at 10 µM ([21]; CAKI-1, 48 h, read-out: GI): 56.1% | inhibition of growth at 10 µM ([22]; RXF 393, 48 h, read-out: GI): 39.8% | inhibition of growth at 10 µM ([23]; UO-31, 48 h, read-out: GI): 85.3% | MIC [24]: 25 µg/mL (≈ 68.3 µM) | inhibition of growth at 10 µM ([25]; SF-268, 48 h, read-out: GI): 48.5% | MIC [26]: 10 µg/mL (≈ 27.3 µM) | inhibition of growth at 10 µM ([27]; SK-OV-3, 48 h, read-out: GI): 50.6% | inhibition of growth at 10 µM ([28]; DU-145, 48 h, read-out: GI): 38.4% | inhibition of growth at 10 µM ([29]; read-out: GI): 97.6% | inhibition of growth at 10 µM ([30]; read-out: GI): 42.7% | inhibition of growth at 10 µM ([31]; NCI-H226, 48 h, read-out: GI): 61% | inhibition of growth at 10 µM ([32]; HCT-15, 48 h, read-out: GI): 63.5% | inhibition of growth at 10 µM ([33]; HT-29, 48 h, read-out: GI): 72.6% | inhibition of growth at 10 µM ([34]; read-out: GI): 65.6% | inhibition of growth at 10 µM ([35]; OVCAR-3, 48 h, read-out: GI): 50.1% | inhibition of growth at 10 µM ([36]; SK-MEL-28, 48 h, read-out: GI): 52.5% | inhibition of growth at 10 µM ([37]; OVCAR-8, 48 h, read-out: GI): 59.5% | inhibition of growth at 10 µM ([38]; SK-MEL-5, 48 h, read-out: GI): 147% | inhibition of growth at 10 µM ([39]; read-out: GI): 77.1% | inhibition of growth at 10 µM ([40]; SW-620, 48 h, read-out: GI): 33.6% | inhibition of growth at 10 µM ([41]; K562, 48 h, read-out: GI): 67.1% | inhibition of growth at 10 µM ([42]; COLO 205, 48 h, read-out: GI): 75.1% | inhibition of growth at 10 µM ([43]; M14, 48 h, read-out: GI): 69.7% | inhibition of growth at 10 µM ([44]; HCC 2998, 48 h, read-out: GI): 41%

Fc1ccc2nc(Cl)c(Cn3nnc(CSc4ccccc4)n3)cc2c1
growth inhibition (GI) [1]: Active | growth inhibition (GI) [2]: Active | growth inhibition (GI) [3]: Active | growth inhibition (GI) [4]: Active | zone of inhibition at 100 µg/mL [5]: 18 mm | growth inhibition (GI) [6]: Active | growth inhibition (GI) [7]: Active | growth inhibition (GI) [8]: Active | growth inhibition (GI) [9]: Active | growth inhibition (GI) [10]: Active | growth inhibition (GI) [11]: Active | growth inhibition (GI) [12]: Active | growth inhibition (GI) [13]: Active | growth inhibition (GI) [14]: Active | growth inhibition (GI) [15]: Active | growth inhibition (GI) [16]: Active | growth inhibition (GI) [17]: Active | growth inhibition (GI) [18]: Active | growth inhibition (GI) [19]: Active | growth inhibition (GI) [20]: Active | growth inhibition (GI) [21]: Active | growth inhibition (GI) [22]: Active | growth inhibition (GI) [23]: Active | MIC [24]: 2.5 µg/mL (≈ 6.48 µM) | growth inhibition (GI) [25]: Active | MIC [26]: 50 µg/mL (≈ 130 µM) | growth inhibition (GI) [27]: Active | growth inhibition (GI) [28]: Active | growth inhibition (GI) [29]: Active | growth inhibition (GI) [30]: Active | growth inhibition (GI) [31]: Active | growth inhibition (GI) [32]: Active | growth inhibition (GI) [33]: Active | growth inhibition (GI) [34]: Active | growth inhibition (GI) [35]: Active | growth inhibition (GI) [36]: Active | growth inhibition (GI) [37]: Active | growth inhibition (GI) [38]: Active | growth inhibition (GI) [39]: Active | growth inhibition (GI) [40]: Active | growth inhibition (GI) [41]: Active | growth inhibition (GI) [42]: Active | growth inhibition (GI) [43]: Active | growth inhibition (GI) [44]: Active
